Each structure is given as a SMILES string.

What is called IC50 is the concentration needed to halve the response being measured.

For the first test, the system named is MCF7 breast carcinoma cells. The test is described as follows: MTS Assay. In kind it is cell-based. The note with it: Homo sapiens, concentration giving 50% viable cell number. On the procedure: MTS assays measures the cytotoxicity of geldanamycin derivatives. MTS (3-(4,5-dimethylthiazol-2-yl)-5-(3-carboxymethoxyphenyl)-2-(4-sulfophenyl)-2H-tetrazolium is a tetrazolium dye that is converted to a formazan product by dehydrogenase enzymes of metabolically active cells (Corey, A. et al. “Use of an aqueous soluble tetrazolium/formazan assay for cell growth assays in culture,” Cancer Commun. 1991, 3, 207–212). Cells were seeded in 96 well plates at 2000 cells/well and allowed to adhere overnight in Dulbecco's modified Eagle's medium supplemented with 10% fetal bovine serum. The final culture volume was 100 μl. Viable cell number was determined by using the Celltiter 96 AQueous Non-radioactive Cell Proliferation Assay (Promega, Madison Wis.). The MTS/PMS (phenazine methosulfate) solution was mixed at a ratio of 20:1, and 20 μL was added per well to 100 μl of culture medium. After 2–4 hours, the formation of the formazan product was measured at 490 nm absorbance using a multiwell plate spectrophotometer. Background was determined by measuring the Abs 490 nm of cell culture medium and MTS-PMS in the absence of cells and was subtracted from all values. Percent viable cells was calculated as follows: % viable cells=(Abs at 490 nm treated cells/Abs at 490 nm untreated cells)×100 […]
On to `COc1c(C)cnc(Cn2nnc3c(Cl)nc(N)nc32)c1C` [Example 1, 7-chloro-3-(4-methoxy-3,5-dimethyl-pyridin-2-ylmethyl)-3H-[1,2,3]triazolo[4,5-d]pyrimidin-5-ylamine], for which half-maximal inhibition (IC50) was put at 8 µM.

For a further test, the system named is HER2/Neu protein. The experiment in a line: HER2 Degradation Assay. In kind it is cell-based. The note with it: Homo sapiens, MCF7, 16 h, MCF7 breast carcinoma cells, 16 h incubation; concentration at which there was 50% degradation of the HER2/Neu protein. As for the experimental part: MCF7 breast carcinoma cells (ATCC) were grown in Dulbecco's modified Eagle's medium (DMEM) containing 10% fetal bovine serum (FBS) and 10 mM HEPES, and plated in 24 well plates (50% confluent). Twenty-four hrs later (cells are 65–70% confluent), test compounds were added and incubated overnight for 16 h. […] The wells were washed with 1 mL phosphate buffered saline (PBS), and 200 μL trypsin was added to each well. After trypsinization was complete, 50 μL of FBS was added to each well. Then 200 μL cells was transferred to 96 well plates. The cells were pipetted up and down to obtain a single cell suspension. The plates were centrifuged at 2,500 rpm for 1 min using a Sorvall Legend RT™ tabletop centrifuge (Kendro Laboratory Products, Asheville, N.C.). The cells were then washed once in PBS containing 0.2% BSA and 0.2% sodium azide (BA buffer). Phycoerythrin (PE) conjugated anti HER2/Neu antibody (Becton Dickinson, #340552), or PE conjugated anti-keyhole limpet hemacyanin [KLH] (Becton Dickinson, #340761) control antibody was added at a dilution of 1:20 and 1:40 respectively (final concentration was 1 μg/mL) and the cells were pipeted up and down to form a single cell suspension, and incubated for 15 mins. The cells were washed twice with 200 μL BA buffer, and resuspended in 200 μL BA buffer, and transferred to FACSCAN tubes with an additional 250 μL BA buffer. Samples were analyzed using a FACSCalibur™ flow cytometer (Becton Dickinson, San Jose, Calif.) equipped with Argon-ion laser that emits 15 mW of 488 nm light for excitation of the PE fluorochrome. 10,000 events were collected per sample. A fluorescence histogram was generated and the mean fluorescence intensity (MFI) of each sample was determined using Cellquest software. The background was defined as the MFI generated from cells incubated with control IgG-PE, and was subtracted from each sample stained with the HER2/Neu antibody. Cells incubated with DMSO was always done as untreated controls since the compounds were resuspended in DMSO. Percent degradation of HER2 was calculated as follows: % HER2 degraded=[(MFl untreated cells−MFl treated cells)/MFl untreated cell]×100
IC50 is defined as the concentration at which there was 50% degradation of the HER2/Neu protein.
In the case of `COc1cc(Cn2nnc3c(Cl)nc(N)nc32)c(Cl)c(OC)c1` [Example 12, 7-chloro-3-(2-chloro-3,5-dimethoxy-benzyl)-3H-[1,2,3]triazolo[4,5-d]pyrimidin-5-ylamine], half-maximal inhibition (IC50) was put at 8.5 µM. With `COc1cc(Cn2nnc3c(Cl)nc(N)nc32)c(I)c(OC)c1OC` [Example 10, 7-chloro-3-(2-iodo-3,4,5-trimethoxy-benzyl)-3H-[1,2,3]triazolo [4,5-d]pyrimidin-5-ylamine], the IC50 was 10 µM. For `COc1cc(Cl)c(OC)c(Cn2nnc3c(Cl)nc(N)nc32)c1` [Example 17, 7-chloro-3-(3-chloro-2,5-dimethoxy-benzyl)-3H-[1,2,3]triazolo[4,5-d]pyrimidin-5-ylamine], the IC50 was 19 µM. As to `COc1cc(Cn2nnc3c(Cl)nc(N)nc32)c(Cl)c(OC)c1OC` [Example 6, 7-chloro-3-(2-chloro-3,4,5-trimethoxy-benzyl)-3H-[1,2,3]triazolo[4,5-d]pyrimidin-5-ylamine], the IC50 was 12 µM.

As for `COc1cc(Cn2nnc3c(Cl)nc(N)nc32)c(Br)c(OC)c1` [Example 13, 7-chloro-3-(2-bromo-3,5-dimethoxy-benzyl)-3H-[1,2,3]triazolo[4,5-d]pyrimidin-5-ylamine], the IC50 worked out at 16 µM. On the same count and under the same terms, under `COc1c(Cl)c(Cn2nnc3c(Cl)nc(N)nc32)c(Cl)c(OC)c1OC` [Example 7, 7-Chloro-3-(2,6-dichloro-3,4,5-trimethoxy-benzyl)-3H-[1,2,3]triazolo[4,5-d]pyrimidin-5-ylamine] stands 4 µM; under `COc1cc(Cn2nnc3c(Cl)nc(N)nc32)c(Br)c(OC)c1OC` [Example 8, 7-chloro-3-(2-bromo-3,4,5-trimethoxy-benzyl)-3H-[1,2,3]triazolo[4,5-d]pyrimidin-5-ylamine], 6.5 µM. `COc1c(C)cnc(Cn2nnc3c(Cl)nc(N)nc32)c1C` [Example 1, 7-chloro-3-(4-methoxy-3,5-dimethyl-pyridin-2-ylmethyl)-3H-[1,2,3]triazolo[4,5-d]pyrimidin-5-ylamine] yielded an IC50 of 0.4 µM.

In the case of `COc1c(Br)c(Cn2nnc3c(Cl)nc(N)nc32)c(Br)c(OC)c1OC` [Example 9, 7-Chloro-3-(2,6-dibromo-3,4,5-trimethoxy-benzyl)-3H-[1,2,3]triazolo[4,5-d]pyrimidin-5-ylamine], the IC50 came to 6.3 µM. On the same count and under the same terms, under `COc1cc(Cn2nnc3c(Cl)nc(N)nc32)c(OC)cc1Br` [Example 16, 7-chloro-3-(4-bromo-2,5-dimethoxy-benzyl)-3H-[1,2,3]triazolo[4,5-d]pyrimidin-5-ylamine] stands 22 µM; under `COc1cc(Cn2nnc3c(Cl)nc(N)nc32)cc(OC)c1OC` [Example 5, 7-chloro-3-(3,4,5-trimethoxy-benzyl)-3H-[1,2,3]triazolo[4,5-d]pyrimidin-5-ylamine], 15 µM.

The record behind these values is US7129244B2, “Triazolopyrimidines and related analogs as HSP90-inhibitors” (Conforma Therapeutics Corporation, priority 2003, dated 2006).
